{"source": "paper PMC3260554", "about": "(Nature Neuroscience, 2010)", "key": {"[1]": {"test_system": "mice", "assay": "Acetic acid-induced writhing", "type": "in vivo, Swiss Webster mice"}, "[2]": {"test_system": "FAAH"}, "[3]": {"test_system": "human epithelial TC7 cells", "assay": "Permeability and efflux ratio through polarized TC7 monolayers", "type": "in vitro ADME", "conditions": "mean of 2 independent experiments"}, "[4]": {"assay": "Temporal tissue distribution of URB937 in liver, brain and serum", "type": "in vivo, Swiss Webster mice", "conditions": "1 mg-kg^−1, i.p., mice"}, "[5]": {"molecular_target": "T1, FAAH (Mus musculus, UniProt O08914)", "T1 sequence (O08914 1-579)": "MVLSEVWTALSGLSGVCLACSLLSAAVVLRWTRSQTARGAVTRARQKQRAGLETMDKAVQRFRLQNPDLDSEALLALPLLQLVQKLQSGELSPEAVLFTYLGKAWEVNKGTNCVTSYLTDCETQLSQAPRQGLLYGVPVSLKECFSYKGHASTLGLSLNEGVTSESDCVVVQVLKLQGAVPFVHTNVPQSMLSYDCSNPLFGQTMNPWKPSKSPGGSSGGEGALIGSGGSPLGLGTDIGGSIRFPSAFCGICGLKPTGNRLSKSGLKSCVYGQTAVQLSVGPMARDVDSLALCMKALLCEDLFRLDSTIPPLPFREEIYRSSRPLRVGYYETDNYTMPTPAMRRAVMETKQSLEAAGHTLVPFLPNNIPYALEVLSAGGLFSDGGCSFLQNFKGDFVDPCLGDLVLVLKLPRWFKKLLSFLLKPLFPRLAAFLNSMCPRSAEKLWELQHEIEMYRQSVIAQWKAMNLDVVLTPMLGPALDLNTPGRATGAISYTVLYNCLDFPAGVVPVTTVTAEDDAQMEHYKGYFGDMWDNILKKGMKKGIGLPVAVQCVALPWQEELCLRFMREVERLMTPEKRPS", "type": "in vivo, Swiss Webster mice"}, "[6]": {"assay": "Drug distribution coefficient n-octanol / buffer pH 7.4", "type": "physicochemical", "conditions": "n-octanol / aqueous buffer pH 7.4, 25±1°C, mean±s.e.m, n = 3"}, "[7]": {"test_system": "Fos protein", "assay": "Formalin-induced spinal cord Fos protein expression", "type": "in vivo, Sprague-Dawley rats"}, "[8]": {"conditions": "ex vivo 1 h after injection, 1 mg-kg^−1 i.p., Swiss Webster mice, n = 3"}, "[9]": {"conditions": "s.c., mice, 1 h after injection"}}, "note": "Read-outs that look alike come from different tables or passages of the source.", "data": [{"smiles": "COc1ccc(C(=O)c2c(C)n(CCN3CCOCC3)c3cc(I)ccc23)cc1", "note": "[AM630]", "values": [{"measurement": "Effect of antagonist on the antinociceptive effect of URB937 (writhing)", "setting": "[1]; antagonist 1 mg-kg^−1, s.c., with URB937 1 mg-kg^−1 s.c.", "result": "ineffective"}]}, {"smiles": "NC(=O)c1cccc(-c2cccc(OC(=O)NC3CCCCC3)c2)c1", "note": "[Compound 1a, cyclohexylcarbamic acid 3′-carbamoylbiphenyl-3-yl ester, reference compound]", "values": [{"measurement": "Effect on brain FAAH activity", "setting": "[2]; in vivo, ip", "result": "markedly reduced"}]}, {"smiles": "NC(=O)c1cccc(-c2cc(OC(=O)NC3CCCCC3)ccc2O)c1", "note": "[Compound 1b]", "values": [{"measurement": "% recovery A–B", "setting": "[3]", "result": 83, "unit": "%"}, {"measurement": "% recovery B-A", "setting": "[3]", "result": 95, "unit": "%"}, {"measurement": "permeability B-A", "setting": "[3]", "result": 371, "unit": "nm/s"}, {"measurement": "Distribution in blood and liver after systemic administration", "setting": "[4]", "result": "distributed rapidly in blood and liver"}, {"measurement": "Presence in brain tissue after systemic administration", "setting": "[4]", "result": "undetectable"}, {"measurement": "Time course of peripheral FAAH inhibition in vivo", "setting": "[5]; Supplementary Figure 1", "result": "rapidly and lastingly"}, {"measurement": "FAAH Inhibition in brain", "setting": "[5]; [8]", "result": "−3.0 ± 8.0", "unit": "%"}, {"measurement": "FAAH Inhibition in liver", "setting": "[5]; [8]", "result": "91.7 ± 0.7", "unit": "%"}, {"measurement": "ED50 for FAAH inhibition in brain", "setting": "[5]; [9]", "result": 40, "unit": "mg/kg"}, {"measurement": "ED50 for FAAH inhibition in liver", "setting": "[5]; [9]", "result": 0.2, "unit": "mg/kg"}, {"measurement": "Effect on brain FAAH activity", "setting": "[2]; 25 mg-kg^−1, i.p.", "result": "no effect"}, {"measurement": "distribution coefficient, LogDoct,pH7.4", "setting": "[6]", "result": "3.03±0.01"}]}, {"smiles": "COc1ccc2c(c1)c(CC(=O)O)c(C)n2C(=O)c1ccc(Cl)cc1", "note": "[indomethacin]", "values": [{"measurement": "Effect on acetic acid-induced writhing relative to URB937", "setting": "[1]; 1 mg-kg^−1, s.c., 1 h before test", "result": "comparable in efficacy"}]}, {"smiles": "Cc1c(C(=O)NN2CCCCC2)nn(-c2ccc(Cl)cc2Cl)c1-c1ccc(Cl)cc1", "note": "[rimonabant]", "values": [{"measurement": "Effect on Fos levels when administered without URB937", "setting": "[7]; 2 mg-kg^−1, i.p., rats", "result": "did not significantly alter Fos levels"}, {"measurement": "Effect of antagonist on URB937 suppression of Fos expression", "setting": "[7]; rimonabant 2 mg-kg^−1, i.p., with URB937", "result": "prevented"}]}]}
